Test results published in US7935847B2, “Nitroxyl ion source with second order reaction nitroxyl release” (Duke University, priority 2007, dated 2011).
Entries after “also recorded” stand apart in the source; their conditions may differ.

Experiments:
[1] = tested on: ischemic reperfusion injury; experiment: Prevention of ischemic reperfusion injury (Working Example V); type: in vivo, human; details: person, heart attack, bypass surgery; intravenously, blood concentration of 10 nanomolar from 15 minutes before reperfusion up to 20 minutes thereafter
Protocol: A person presents with a heart attack. Blockage is treated with bypass surgery. The patient is give compound (II) intravenously to maintain a blood concentration of 10 nanomolar 15 minutes before reperfusion up to 20 minutes thereafter.

[2] = tested on: congestive heart failure and a dilated cardiomyopathy; experiment: Treatment of heart failure (Working Example IV); type: in vivo, human; details: person with congestive heart failure and dilated cardiomyopathy; intravenously, blood concentration of 10 nanomolar
Protocol: A person with congestive heart failure and a dilated cardiomyopathy is administered compound (II) intravenously (to obtain a blood concentration of 10 nanomolar). Their ejection fraction improves, their blood pressure decreases, and […] pO2 improves on room air. Symptoms of angina also decrease.

[3] = Isolability / rate of nitroxyl release on attempted synthesis; type: physicochemical; details: electron withdrawing group p-nitrophenyl; nitrosation of 4g with NaNO2 in glacial acetic acid
Protocol: It has been found herein that the rate of release is so fast, when the electron withdrawing group on the carbon acid is p-nitrophenyl, e.g., when the compound is (I) below.
The same would be true where the electron withdrawing group is nitro. Thus the compound of the invention excludes the cases where the electron withdrawing group is nitro or p-nitrophenyl.
A freshly prepared solution of aqueous 10M NaNO2 (0.59 ml, 5.9 mmol) is added dropwise with stirring to a cooled (ice/H2O bath) solution of (1.22 g, 4.9 mmol) 4g in glacial acetic acid (1.5 ml). Stirring is continued for 1 hour. The reaction mixture is diluted with the water (5 mL) and precipitates are filtered off at vacuum. The filter cake is washed with water (20 ml), hexane (20 ml) and dried under vacuum to give

SMILES	ischemic reperfusion injury [1]	blood pressure [2]	ejection fraction [2]	pO2 on room air [2]	symptoms of angina [2]	stability / isolability (rate of nitroxyl release) [3]
CC(=O)C(Cc1ccc(Br)cc1)(N=O)C(C)=O [Compound (II), 3-(4-bromobenzyl)-3-nitroso-2,4-pentanedione]	does not occur	decreases	improves	improves	decrease	–
CC(=O)C(Cc1ccc([N+](=O)[O-])cc1)(N=O)C(C)=O [Compound (I)]	–	–	–	–	–	cannot be isolated; also recorded: couldn't be isolated
